Measurements as given in ChEMBL document CHEMBL3870304 (Eur J Med Chem, 2016).

Experiment: cells
Conditions: Homo sapiens, NCI-H460, 72 h
Description: Cytotoxicity against human NCI-H460 cells assessed as reduction in cell proliferation after 72 hrs by MTT assay
For `CSc1ccc(/C(C)=N/Nc2ncc(Cl)c(Nc3ccccc3S(=O)(=O)C(C)C)n2)cc1`, the IC50 was > 10000 nM.
In the case of `CC(C)S(=O)(=O)c1ccccc1Nc1nc(N/N=C/c2ccc(Cl)cc2)ncc1Cl`, the IC50 is reported as 2900 nM.
For `C/C(=N\Nc1ncc(Cl)c(Nc2ccccc2S(=O)(=O)C(C)C)n1)c1ccc(C#N)cc1`, the IC50 was 6840 nM.
For `CC(C)S(=O)(=O)c1ccccc1Nc1nc(N/N=C/c2ccc([N+](=O)[O-])cc2)ncc1Cl`, the IC50 was > 10000 nM.
In the case of `COc1ccccc1/C=N/Nc1ncc(Cl)c(Nc2ccccc2S(=O)(=O)C(C)C)n1`, the IC50 is reported as > 10000 nM.
For `CC(C)S(=O)(=O)c1ccccc1Nc1nc(N/N=C/c2ccncc2)ncc1Cl`, the IC50 was 1130 nM.
For `C/C(=N\Nc1ncc(Cl)c(Nc2ccccc2S(=O)(=O)C(C)C)n1)c1ccc(F)cc1F`, the IC50 was > 10000 nM.
Compound `CC(C)S(=O)(=O)c1ccccc1Nc1nc(N/N=C/c2cccnc2)ncc1Cl` has an IC50 of 1530 nM.
With `CC(C)S(=O)(=O)c1ccccc1Nc1nc(N/N=C/c2ccccc2Cl)ncc1Cl` the IC50 was 7120 nM.
`Cc1ccc(/C=N/Nc2ncc(Cl)c(Nc3ccccc3S(=O)(=O)C(C)C)n2)cc1` gave an IC50 of 1650 nM.
Work on `CC(C)S(=O)(=O)c1ccccc1Nc1nc(N/N=C/c2ccc(Br)cc2)ncc1Cl` yielded an IC50 of 3130 nM.
With `C/C(=N\Nc1ncc(Cl)c(Nc2ccccc2S(=O)(=O)C(C)C)n1)c1ccc(C)cc1` the IC50 was > 10000 nM.
Work on `CC(C)S(=O)(=O)c1ccccc1Nc1nc(N/N=C/c2ccccc2)ncc1Cl` yielded an IC50 of 1480 nM.
`CC(C)S(=O)(=O)c1ccccc1Nc1nc(N/N=C/c2ccc(C#N)cc2)ncc1Cl` showed an IC50 of 2830 nM.
With `CC(C)S(=O)(=O)c1ccccc1Nc1nc(N/N=C/c2ccc(S(C)(=O)=O)cc2)ncc1Cl` the IC50 was 2020 nM.
With `CC(C)S(=O)(=O)c1ccccc1Nc1nc(N/N=C/c2ccc(F)cc2F)ncc1Cl` the IC50 was 3360 nM.
For `CC(C)S(=O)(=O)c1ccccc1Nc1nc(N/N=C/c2cccc(Br)c2)ncc1Cl`, the IC50 was > 10000 nM.

Experiment: cells
Conditions: Homo sapiens, HCC78, 72 h
Description: Cytotoxicity against human HCC78 cells harboring SLC34A2-ROS1 assessed as reduction in cell proliferation after 72 hrs by MTT assay
Work on `CSc1ccc(/C(C)=N/Nc2ncc(Cl)c(Nc3ccccc3S(=O)(=O)C(C)C)n2)cc1` yielded an IC50 of 850 nM.
`CC(C)S(=O)(=O)c1ccccc1Nc1nc(N/N=C/c2ccc(Cl)cc2)ncc1Cl` gave an IC50 of 1700 nM.
`C/C(=N\Nc1ncc(Cl)c(Nc2ccccc2S(=O)(=O)C(C)C)n1)c1ccc(C#N)cc1` showed an IC50 of 310 nM.
Work on `CC(C)S(=O)(=O)c1ccccc1Nc1nc(N/N=C/c2ccc([N+](=O)[O-])cc2)ncc1Cl` yielded an IC50 of 1980 nM.
Compound `COc1ccccc1/C=N/Nc1ncc(Cl)c(Nc2ccccc2S(=O)(=O)C(C)C)n1` has an IC50 of 4160 nM.
In the case of `CC(C)S(=O)(=O)c1ccccc1Nc1nc(N/N=C/c2ccncc2)ncc1Cl`, the IC50 is reported as 820 nM.
For `C/C(=N\Nc1ncc(Cl)c(Nc2ccccc2S(=O)(=O)C(C)C)n1)c1ccc(F)cc1F`, the IC50 was 670 nM.
Compound `CC(C)S(=O)(=O)c1ccccc1Nc1nc(N/N=C/c2cccnc2)ncc1Cl` has an IC50 of 970 nM.
Work on `CC(C)S(=O)(=O)c1ccccc1Nc1nc(N/N=C/c2ccccc2Cl)ncc1Cl` yielded an IC50 of 6300 nM.
`Cc1ccc(/C=N/Nc2ncc(Cl)c(Nc3ccccc3S(=O)(=O)C(C)C)n2)cc1` gave an IC50 of 1730 nM.
In the case of `CC(C)S(=O)(=O)c1ccccc1Nc1nc(N/N=C/c2ccc(Br)cc2)ncc1Cl`, the IC50 is reported as 950 nM.
In the case of `C/C(=N\Nc1ncc(Cl)c(Nc2ccccc2S(=O)(=O)C(C)C)n1)c1ccc(C)cc1`, the IC50 is reported as 2840 nM.
Work on `CC(C)S(=O)(=O)c1ccccc1Nc1nc(N/N=C/c2ccccc2)ncc1Cl` yielded an IC50 of 470 nM.
For `CC(C)S(=O)(=O)c1ccccc1Nc1nc(N/N=C/c2ccc(C#N)cc2)ncc1Cl`, the IC50 was 270 nM.
With `CC(C)S(=O)(=O)c1ccccc1Nc1nc(N/N=C/c2ccc(S(C)(=O)=O)cc2)ncc1Cl` the IC50 was 310 nM.
For `CC(C)S(=O)(=O)c1ccccc1Nc1nc(N/N=C/c2ccc(F)cc2F)ncc1Cl`, the IC50 was 110 nM.
Work on `CC(C)S(=O)(=O)c1ccccc1Nc1nc(N/N=C/c2cccc(Br)c2)ncc1Cl` yielded an IC50 of 1200 nM.

Experiment: cells
Conditions: Homo sapiens, HT-29, 72 h
Description: Cytotoxicity against human HT-29 cells assessed as reduction in cell proliferation after 72 hrs by MTT assay
Compound `CSc1ccc(/C(C)=N/Nc2ncc(Cl)c(Nc3ccccc3S(=O)(=O)C(C)C)n2)cc1` has an IC50 of 5430 nM.
With `CC(C)S(=O)(=O)c1ccccc1Nc1nc(N/N=C/c2ccc(Cl)cc2)ncc1Cl` the IC50 was 8190 nM.
In the case of `C/C(=N\Nc1ncc(Cl)c(Nc2ccccc2S(=O)(=O)C(C)C)n1)c1ccc(C#N)cc1`, the IC50 is reported as > 10000 nM.
Compound `CC(C)S(=O)(=O)c1ccccc1Nc1nc(N/N=C/c2ccc([N+](=O)[O-])cc2)ncc1Cl` has an IC50 of 1720 nM.
For `COc1ccccc1/C=N/Nc1ncc(Cl)c(Nc2ccccc2S(=O)(=O)C(C)C)n1`, the IC50 was > 10000 nM.
Compound `CC(C)S(=O)(=O)c1ccccc1Nc1nc(N/N=C/c2ccncc2)ncc1Cl` has an IC50 of 980 nM.
Compound `C/C(=N\Nc1ncc(Cl)c(Nc2ccccc2S(=O)(=O)C(C)C)n1)c1ccc(F)cc1F` has an IC50 of 2120 nM.
Compound `CC(C)S(=O)(=O)c1ccccc1Nc1nc(N/N=C/c2cccnc2)ncc1Cl` has an IC50 of 830 nM.
For `CC(C)S(=O)(=O)c1ccccc1Nc1nc(N/N=C/c2ccccc2Cl)ncc1Cl`, the IC50 was > 10000 nM.
In the case of `Cc1ccc(/C=N/Nc2ncc(Cl)c(Nc3ccccc3S(=O)(=O)C(C)C)n2)cc1`, the IC50 is reported as > 10000 nM.
Work on `CC(C)S(=O)(=O)c1ccccc1Nc1nc(N/N=C/c2ccc(Br)cc2)ncc1Cl` yielded an IC50 of 2300 nM.
In the case of `C/C(=N\Nc1ncc(Cl)c(Nc2ccccc2S(=O)(=O)C(C)C)n1)c1ccc(C)cc1`, the IC50 is reported as > 10000 nM.
Compound `CC(C)S(=O)(=O)c1ccccc1Nc1nc(N/N=C/c2ccccc2)ncc1Cl` has an IC50 of 1320 nM.
For `CC(C)S(=O)(=O)c1ccccc1Nc1nc(N/N=C/c2ccc(C#N)cc2)ncc1Cl`, the IC50 was 2960 nM.
In the case of `CC(C)S(=O)(=O)c1ccccc1Nc1nc(N/N=C/c2ccc(S(C)(=O)=O)cc2)ncc1Cl`, the IC50 is reported as 1100 nM.
In the case of `CC(C)S(=O)(=O)c1ccccc1Nc1nc(N/N=C/c2ccc(F)cc2F)ncc1Cl`, the IC50 is reported as > 10000 nM.
`CC(C)S(=O)(=O)c1ccccc1Nc1nc(N/N=C/c2cccc(Br)c2)ncc1Cl` gave an IC50 of 1030 nM.

Experiment: cells
Conditions: Homo sapiens, KARPAS-299, 72 h
Description: Cytotoxicity against human KARPAS299 cells harboring NPM-ALK assessed as reduction in cell proliferation after 72 hrs by MTT assay
For `CSc1ccc(/C(C)=N/Nc2ncc(Cl)c(Nc3ccccc3S(=O)(=O)C(C)C)n2)cc1`, the IC50 was 490 nM.
`CC(C)S(=O)(=O)c1ccccc1Nc1nc(N/N=C/c2ccc(Cl)cc2)ncc1Cl` showed an IC50 of 1320 nM.
Work on `C/C(=N\Nc1ncc(Cl)c(Nc2ccccc2S(=O)(=O)C(C)C)n1)c1ccc(C#N)cc1` yielded an IC50 of 270 nM.
Work on `CC(C)S(=O)(=O)c1ccccc1Nc1nc(N/N=C/c2ccc([N+](=O)[O-])cc2)ncc1Cl` yielded an IC50 of 2970 nM.
Compound `COc1ccccc1/C=N/Nc1ncc(Cl)c(Nc2ccccc2S(=O)(=O)C(C)C)n1` has an IC50 of 6930 nM.
`CC(C)S(=O)(=O)c1ccccc1Nc1nc(N/N=C/c2ccncc2)ncc1Cl` showed an IC50 of 870 nM.
Work on `C/C(=N\Nc1ncc(Cl)c(Nc2ccccc2S(=O)(=O)C(C)C)n1)c1ccc(F)cc1F` yielded an IC50 of 440 nM.
In the case of `CC(C)S(=O)(=O)c1ccccc1Nc1nc(N/N=C/c2cccnc2)ncc1Cl`, the IC50 is reported as 930 nM.
For `CC(C)S(=O)(=O)c1ccccc1Nc1nc(N/N=C/c2ccccc2Cl)ncc1Cl`, the IC50 was 5620 nM.
In the case of `Cc1ccc(/C=N/Nc2ncc(Cl)c(Nc3ccccc3S(=O)(=O)C(C)C)n2)cc1`, the IC50 is reported as 1620 nM.
Compound `CC(C)S(=O)(=O)c1ccccc1Nc1nc(N/N=C/c2ccc(Br)cc2)ncc1Cl` has an IC50 of 1440 nM.
For `C/C(=N\Nc1ncc(Cl)c(Nc2ccccc2S(=O)(=O)C(C)C)n1)c1ccc(C)cc1`, the IC50 was 2230 nM.
With `CC(C)S(=O)(=O)c1ccccc1Nc1nc(N/N=C/c2ccccc2)ncc1Cl` the IC50 was 250 nM.
Work on `CC(C)S(=O)(=O)c1ccccc1Nc1nc(N/N=C/c2ccc(C#N)cc2)ncc1Cl` yielded an IC50 of 340 nM.
In the case of `CC(C)S(=O)(=O)c1ccccc1Nc1nc(N/N=C/c2ccc(S(C)(=O)=O)cc2)ncc1Cl`, the IC50 is reported as 240 nM.
For `CC(C)S(=O)(=O)c1ccccc1Nc1nc(N/N=C/c2ccc(F)cc2F)ncc1Cl`, the IC50 was 100 nM.
`CC(C)S(=O)(=O)c1ccccc1Nc1nc(N/N=C/c2cccc(Br)c2)ncc1Cl` showed an IC50 of 1400 nM.

Experiment: cells
Conditions: Homo sapiens, A549, 72 h
Description: Cytotoxicity against human A549 cells assessed as reduction in cell proliferation after 72 hrs by MTT assay
For `CSc1ccc(/C(C)=N/Nc2ncc(Cl)c(Nc3ccccc3S(=O)(=O)C(C)C)n2)cc1`, the IC50 was > 10000 nM.
`CC(C)S(=O)(=O)c1ccccc1Nc1nc(N/N=C/c2ccc(Cl)cc2)ncc1Cl` showed an IC50 of 2930 nM.
With `C/C(=N\Nc1ncc(Cl)c(Nc2ccccc2S(=O)(=O)C(C)C)n1)c1ccc(C#N)cc1` the IC50 was > 10000 nM.
Work on `CC(C)S(=O)(=O)c1ccccc1Nc1nc(N/N=C/c2ccc([N+](=O)[O-])cc2)ncc1Cl` yielded an IC50 of 9250 nM.
With `COc1ccccc1/C=N/Nc1ncc(Cl)c(Nc2ccccc2S(=O)(=O)C(C)C)n1` the IC50 was 7040 nM.
Work on `CC(C)S(=O)(=O)c1ccccc1Nc1nc(N/N=C/c2ccncc2)ncc1Cl` yielded an IC50 of 1420 nM.
`C/C(=N\Nc1ncc(Cl)c(Nc2ccccc2S(=O)(=O)C(C)C)n1)c1ccc(F)cc1F` gave an IC50 of 1650 nM.
`CC(C)S(=O)(=O)c1ccccc1Nc1nc(N/N=C/c2cccnc2)ncc1Cl` showed an IC50 of 1150 nM.
With `CC(C)S(=O)(=O)c1ccccc1Nc1nc(N/N=C/c2ccccc2Cl)ncc1Cl` the IC50 was 7900 nM.
In the case of `Cc1ccc(/C=N/Nc2ncc(Cl)c(Nc3ccccc3S(=O)(=O)C(C)C)n2)cc1`, the IC50 is reported as 4420 nM.
Compound `CC(C)S(=O)(=O)c1ccccc1Nc1nc(N/N=C/c2ccc(Br)cc2)ncc1Cl` has an IC50 of 1310 nM.
In the case of `C/C(=N\Nc1ncc(Cl)c(Nc2ccccc2S(=O)(=O)C(C)C)n1)c1ccc(C)cc1`, the IC50 is reported as > 10000 nM.
For `CC(C)S(=O)(=O)c1ccccc1Nc1nc(N/N=C/c2ccccc2)ncc1Cl`, the IC50 was 1230 nM.
With `CC(C)S(=O)(=O)c1ccccc1Nc1nc(N/N=C/c2ccc(C#N)cc2)ncc1Cl` the IC50 was 2510 nM.
With `CC(C)S(=O)(=O)c1ccccc1Nc1nc(N/N=C/c2ccc(S(C)(=O)=O)cc2)ncc1Cl` the IC50 was 1330 nM.
Work on `CC(C)S(=O)(=O)c1ccccc1Nc1nc(N/N=C/c2ccc(F)cc2F)ncc1Cl` yielded an IC50 of 2280 nM.
`CC(C)S(=O)(=O)c1ccccc1Nc1nc(N/N=C/c2cccc(Br)c2)ncc1Cl` showed an IC50 of 1090 nM.
